What was measured:
GPR92 = target: T1, GPR92 (Homo sapiens, UniProt Q9H1C0); test: PathHunter β-arrestin assay; assay type: cell-based; conditions: screen, control agonist; CHO, RT, 3HR
T1 construct: purchased Eurofins DiscoverX (PathHunter gpcrMAX)

EDG7 = target: T2, EDG7 (Homo sapiens, UniProt Q9UBY5); test: PathHunter β-arrestin assay; assay type: cell-based; conditions: screen, control agonist; CHO, RT, 3HR
T2 construct: purchased Eurofins DiscoverX (PathHunter gpcrMAX)

EDG4 = target: T3, EDG4 (Homo sapiens, UniProt Q9HBW0); test: PathHunter β-arrestin assay; assay type: cell-based; conditions: screen, control agonist; CHO, RT, 3HR
T3 construct: purchased Eurofins DiscoverX (PathHunter gpcrMAX)
T3 sequence (Q9HBW0 whole entry): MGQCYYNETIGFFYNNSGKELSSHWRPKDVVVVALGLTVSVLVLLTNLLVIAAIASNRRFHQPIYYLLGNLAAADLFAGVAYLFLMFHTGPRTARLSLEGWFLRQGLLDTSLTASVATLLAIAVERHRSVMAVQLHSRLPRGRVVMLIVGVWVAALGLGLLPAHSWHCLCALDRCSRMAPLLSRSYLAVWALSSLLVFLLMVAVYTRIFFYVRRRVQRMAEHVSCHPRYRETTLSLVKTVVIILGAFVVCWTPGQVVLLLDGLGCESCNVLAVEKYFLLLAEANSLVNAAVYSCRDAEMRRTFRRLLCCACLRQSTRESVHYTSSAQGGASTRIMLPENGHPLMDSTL

ADRA1B = target: T4, ADRA1B (Homo sapiens, UniProt P35368); test: PathHunter β-arrestin assay; assay type: cell-based; conditions: screen, control agonist; CHO, 37C, 2HR
T4 construct: purchased Eurofins DiscoverX (PathHunter gpcrMAX)
T4 sequence (P35368 whole entry): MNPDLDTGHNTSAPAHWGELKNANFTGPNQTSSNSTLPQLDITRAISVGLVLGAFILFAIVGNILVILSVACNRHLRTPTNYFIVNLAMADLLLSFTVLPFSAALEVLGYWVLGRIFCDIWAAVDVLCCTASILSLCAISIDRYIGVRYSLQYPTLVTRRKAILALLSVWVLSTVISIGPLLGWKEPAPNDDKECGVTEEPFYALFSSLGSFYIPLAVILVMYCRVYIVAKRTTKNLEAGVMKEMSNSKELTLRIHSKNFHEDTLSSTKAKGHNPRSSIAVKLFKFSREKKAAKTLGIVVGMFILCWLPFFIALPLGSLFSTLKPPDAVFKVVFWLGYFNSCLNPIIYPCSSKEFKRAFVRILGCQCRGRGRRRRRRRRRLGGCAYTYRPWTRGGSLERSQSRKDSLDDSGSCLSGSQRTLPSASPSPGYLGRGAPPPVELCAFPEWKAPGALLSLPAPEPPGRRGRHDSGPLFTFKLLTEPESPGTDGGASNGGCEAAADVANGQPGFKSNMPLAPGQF

FPRL1 = target: T5, FPRL1 (Homo sapiens, UniProt P25090); test: PathHunter β-arrestin assay; assay type: cell-based; conditions: screen, control agonist; CHO, 37C, 2HR
T5 construct: purchased Eurofins DiscoverX (PathHunter gpcrMAX)
T5 sequence (P25090 whole entry): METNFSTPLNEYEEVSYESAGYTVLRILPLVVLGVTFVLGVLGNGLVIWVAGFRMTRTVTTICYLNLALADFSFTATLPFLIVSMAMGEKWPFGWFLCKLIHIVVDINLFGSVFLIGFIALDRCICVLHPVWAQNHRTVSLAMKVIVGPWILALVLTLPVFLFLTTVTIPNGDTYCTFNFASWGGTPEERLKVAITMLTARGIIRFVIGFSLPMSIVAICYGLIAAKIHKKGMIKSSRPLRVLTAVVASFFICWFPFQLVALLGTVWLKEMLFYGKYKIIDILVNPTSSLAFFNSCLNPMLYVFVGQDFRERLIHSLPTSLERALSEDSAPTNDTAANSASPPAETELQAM

FPR1 = target: T6, FPR1 (Homo sapiens, UniProt P21462); test: PathHunter β-arrestin assay; assay type: cell-based; conditions: control agonist
T6 sequence (P21462 1-350): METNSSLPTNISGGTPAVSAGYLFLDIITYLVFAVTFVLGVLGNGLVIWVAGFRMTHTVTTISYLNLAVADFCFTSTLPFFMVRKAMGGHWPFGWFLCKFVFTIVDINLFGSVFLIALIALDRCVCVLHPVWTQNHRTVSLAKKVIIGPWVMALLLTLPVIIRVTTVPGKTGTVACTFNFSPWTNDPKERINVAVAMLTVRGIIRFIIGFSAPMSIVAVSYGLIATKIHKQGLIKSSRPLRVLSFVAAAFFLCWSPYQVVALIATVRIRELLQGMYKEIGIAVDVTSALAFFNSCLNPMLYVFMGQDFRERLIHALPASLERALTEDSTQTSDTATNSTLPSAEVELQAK

DRD2S = DRD2S (Homo sapiens, UniProt P14416); conditions: screen, control agonist; CHO, RT, 2HR
Chain of DRD2S (P14416 1-414 isoform P14416-2): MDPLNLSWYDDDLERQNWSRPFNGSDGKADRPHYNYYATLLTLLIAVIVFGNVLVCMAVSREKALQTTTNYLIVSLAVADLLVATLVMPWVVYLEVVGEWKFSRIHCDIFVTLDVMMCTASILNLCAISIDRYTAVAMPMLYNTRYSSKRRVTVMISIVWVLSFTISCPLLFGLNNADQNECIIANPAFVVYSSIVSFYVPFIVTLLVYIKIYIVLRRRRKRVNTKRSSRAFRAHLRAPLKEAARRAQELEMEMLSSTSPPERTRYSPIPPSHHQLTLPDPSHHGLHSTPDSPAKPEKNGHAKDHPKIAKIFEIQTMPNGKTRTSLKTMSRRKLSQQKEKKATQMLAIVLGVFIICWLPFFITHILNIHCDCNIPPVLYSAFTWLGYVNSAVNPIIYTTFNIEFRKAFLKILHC

DRD2L = DRD2L (Homo sapiens, UniProt P14416); test: PathHunter β-arrestin assay; assay type: cell-based; conditions: control agonist
Chain of DRD2L (P14416 whole entry): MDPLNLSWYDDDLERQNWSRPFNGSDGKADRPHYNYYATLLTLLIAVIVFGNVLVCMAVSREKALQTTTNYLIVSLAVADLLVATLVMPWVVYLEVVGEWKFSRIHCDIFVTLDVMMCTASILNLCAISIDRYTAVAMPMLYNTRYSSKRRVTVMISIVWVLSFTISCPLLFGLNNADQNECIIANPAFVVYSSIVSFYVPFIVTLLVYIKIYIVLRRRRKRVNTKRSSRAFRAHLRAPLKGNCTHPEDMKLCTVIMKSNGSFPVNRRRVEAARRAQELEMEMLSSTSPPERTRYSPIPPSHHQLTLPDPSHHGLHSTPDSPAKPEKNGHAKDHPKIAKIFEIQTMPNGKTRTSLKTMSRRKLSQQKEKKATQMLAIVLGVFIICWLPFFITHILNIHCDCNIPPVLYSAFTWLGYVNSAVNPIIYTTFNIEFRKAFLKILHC

GPR103 = target: T7, GPR103 (Homo sapiens, UniProt Q96P65); test: PathHunter β-arrestin assay; assay type: cell-based; conditions: screen, control agonist; CHO, RT, 2HR
T7 construct: purchased Eurofins DiscoverX (PathHunter gpcrMAX)
T7 sequence (Q96P65 1-431): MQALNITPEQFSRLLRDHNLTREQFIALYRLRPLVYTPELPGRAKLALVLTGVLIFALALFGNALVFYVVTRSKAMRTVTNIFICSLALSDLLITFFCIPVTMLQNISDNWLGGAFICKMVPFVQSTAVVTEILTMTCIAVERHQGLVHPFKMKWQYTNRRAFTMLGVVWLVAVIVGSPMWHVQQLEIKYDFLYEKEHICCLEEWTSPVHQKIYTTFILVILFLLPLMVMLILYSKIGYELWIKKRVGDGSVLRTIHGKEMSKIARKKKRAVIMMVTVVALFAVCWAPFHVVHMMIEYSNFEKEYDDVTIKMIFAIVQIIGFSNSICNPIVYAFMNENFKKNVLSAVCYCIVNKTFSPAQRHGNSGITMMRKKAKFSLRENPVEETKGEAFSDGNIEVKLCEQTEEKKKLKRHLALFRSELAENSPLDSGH

GPR109B = target: T8, GPR109B (Homo sapiens, UniProt P49019); test: PathHunter β-arrestin assay; assay type: cell-based; conditions: screen, control agonist; CHO, 37C, 2HR
T8 construct: purchased Eurofins DiscoverX (PathHunter gpcrMAX)

FFAR1 = target: T9, FFAR1 (Homo sapiens, UniProt O14842); test: PathHunter β-arrestin assay; assay type: cell-based; conditions: screen, control agonist; DLD1, 37C, 4HR
T9 construct: purchased Eurofins DiscoverX (PathHunter gpcrMAX)
T9 sequence (O14842 whole entry): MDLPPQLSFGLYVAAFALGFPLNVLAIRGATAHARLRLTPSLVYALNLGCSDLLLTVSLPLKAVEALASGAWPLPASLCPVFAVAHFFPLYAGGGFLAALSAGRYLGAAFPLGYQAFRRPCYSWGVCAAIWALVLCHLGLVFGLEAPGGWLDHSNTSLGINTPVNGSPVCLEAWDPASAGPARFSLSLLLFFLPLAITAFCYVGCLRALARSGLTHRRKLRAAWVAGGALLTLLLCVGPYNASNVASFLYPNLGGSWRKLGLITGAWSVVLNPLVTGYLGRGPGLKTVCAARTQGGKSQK

GPR120 = target: T10, GPR120 (Homo sapiens, UniProt Q5NUL3); test: PathHunter β-arrestin assay; assay type: cell-based; conditions: screen, control agonist; CHO, 37C, 2HR
T10 construct: purchased Eurofins DiscoverX (PathHunter gpcrMAX)

EBI2 = target: T11, EBI2 (Homo sapiens, UniProt P32249); test: PathHunter β-arrestin assay; assay type: cell-based; conditions: screen, control agonist; CHO, RT, 2HR
T11 construct: purchased Eurofins DiscoverX (PathHunter gpcrMAX)
T11 sequence (P32249 whole entry): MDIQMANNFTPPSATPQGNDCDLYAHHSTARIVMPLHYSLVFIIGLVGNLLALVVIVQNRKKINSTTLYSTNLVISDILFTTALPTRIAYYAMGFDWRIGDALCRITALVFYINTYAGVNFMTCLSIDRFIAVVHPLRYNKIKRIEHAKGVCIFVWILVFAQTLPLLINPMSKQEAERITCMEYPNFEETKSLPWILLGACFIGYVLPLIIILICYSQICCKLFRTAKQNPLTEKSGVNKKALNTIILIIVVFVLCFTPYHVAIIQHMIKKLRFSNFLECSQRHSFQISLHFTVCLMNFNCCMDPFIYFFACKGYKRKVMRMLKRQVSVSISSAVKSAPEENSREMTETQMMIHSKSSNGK

GPR1 = target: T12, GPR1 (Homo sapiens, UniProt P46091); test: PathHunter β-arrestin assay; assay type: cell-based; conditions: screen, control agonist; CHO, 37C, 2HR
T12 construct: purchased Eurofins DiscoverX (PathHunter gpcrMAX)
T12 sequence (P46091 1-355): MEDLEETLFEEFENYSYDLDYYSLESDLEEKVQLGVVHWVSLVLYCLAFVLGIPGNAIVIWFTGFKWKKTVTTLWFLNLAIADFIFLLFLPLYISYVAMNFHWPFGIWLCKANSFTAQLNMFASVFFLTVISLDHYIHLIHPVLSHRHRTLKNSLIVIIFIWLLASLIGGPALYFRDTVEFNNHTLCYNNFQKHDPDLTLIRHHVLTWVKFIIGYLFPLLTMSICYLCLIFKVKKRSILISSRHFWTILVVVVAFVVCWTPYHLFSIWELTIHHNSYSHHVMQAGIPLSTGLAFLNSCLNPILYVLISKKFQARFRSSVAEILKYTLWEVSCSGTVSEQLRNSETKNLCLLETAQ

EDG6 = target: T13, EDG6 (Homo sapiens, UniProt O95977); test: PathHunter β-arrestin assay; assay type: cell-based; conditions: screen, control agonist; CHO, 37C, 4HR
T13 construct: purchased Eurofins DiscoverX (PathHunter gpcrMAX)
T13 sequence (O95977 whole entry): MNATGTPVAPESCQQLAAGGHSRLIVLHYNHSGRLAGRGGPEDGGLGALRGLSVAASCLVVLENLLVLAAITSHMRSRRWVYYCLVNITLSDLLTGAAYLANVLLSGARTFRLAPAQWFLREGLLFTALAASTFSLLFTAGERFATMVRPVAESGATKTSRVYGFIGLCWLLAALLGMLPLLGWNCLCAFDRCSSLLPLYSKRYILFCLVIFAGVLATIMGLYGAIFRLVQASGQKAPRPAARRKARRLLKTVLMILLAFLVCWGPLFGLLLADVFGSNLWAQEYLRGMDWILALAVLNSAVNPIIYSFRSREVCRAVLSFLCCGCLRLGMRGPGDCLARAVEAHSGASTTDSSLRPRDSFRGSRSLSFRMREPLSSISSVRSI

EDG3 = target: T14, EDG3 (Homo sapiens, UniProt Q99500); test: PathHunter β-arrestin assay; assay type: cell-based; conditions: screen, control agonist; CHO, 37C, 2HR
T14 construct: purchased Eurofins DiscoverX (PathHunter gpcrMAX)
T14 sequence (Q99500 whole entry): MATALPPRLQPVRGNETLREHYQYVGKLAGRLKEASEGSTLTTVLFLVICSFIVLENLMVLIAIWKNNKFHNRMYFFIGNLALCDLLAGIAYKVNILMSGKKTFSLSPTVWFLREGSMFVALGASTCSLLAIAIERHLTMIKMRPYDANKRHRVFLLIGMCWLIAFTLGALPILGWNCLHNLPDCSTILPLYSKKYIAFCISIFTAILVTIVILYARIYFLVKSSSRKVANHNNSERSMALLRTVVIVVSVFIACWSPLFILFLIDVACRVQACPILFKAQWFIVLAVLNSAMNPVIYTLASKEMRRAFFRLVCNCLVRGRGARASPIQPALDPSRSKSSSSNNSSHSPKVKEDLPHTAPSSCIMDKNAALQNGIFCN

EDG1 = target: T15, EDG1 (Homo sapiens, UniProt P21453); test: PathHunter β-arrestin assay; assay type: cell-based; conditions: screen, control agonist; CHO, 37C, 2HR
T15 construct: purchased Eurofins DiscoverX (PathHunter gpcrMAX)

EDG5 = target: T16, EDG5 (Homo sapiens, UniProt O95136); test: PathHunter β-arrestin assay; assay type: cell-based; conditions: screen, control agonist; CHO, 37C, 2HR
T16 construct: purchased Eurofins DiscoverX (PathHunter gpcrMAX)
T16 sequence (O95136 whole entry): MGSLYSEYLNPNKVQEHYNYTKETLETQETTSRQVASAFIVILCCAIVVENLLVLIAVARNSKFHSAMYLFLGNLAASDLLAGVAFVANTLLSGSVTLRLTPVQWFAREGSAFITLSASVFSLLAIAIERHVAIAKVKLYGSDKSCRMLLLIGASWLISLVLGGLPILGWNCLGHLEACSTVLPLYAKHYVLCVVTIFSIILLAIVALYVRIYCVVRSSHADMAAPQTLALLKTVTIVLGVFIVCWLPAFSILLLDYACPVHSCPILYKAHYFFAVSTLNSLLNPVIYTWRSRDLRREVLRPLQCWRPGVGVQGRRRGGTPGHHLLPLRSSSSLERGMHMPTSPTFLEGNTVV

CXCR6 = target: T17, CXCR6 (Homo sapiens, UniProt O00574); test: PathHunter β-arrestin assay; assay type: cell-based; conditions: screen, control agonist; HEK, 37C, 2HR
T17 construct: purchased Eurofins DiscoverX (PathHunter gpcrMAX)
T17 sequence (O00574 whole entry): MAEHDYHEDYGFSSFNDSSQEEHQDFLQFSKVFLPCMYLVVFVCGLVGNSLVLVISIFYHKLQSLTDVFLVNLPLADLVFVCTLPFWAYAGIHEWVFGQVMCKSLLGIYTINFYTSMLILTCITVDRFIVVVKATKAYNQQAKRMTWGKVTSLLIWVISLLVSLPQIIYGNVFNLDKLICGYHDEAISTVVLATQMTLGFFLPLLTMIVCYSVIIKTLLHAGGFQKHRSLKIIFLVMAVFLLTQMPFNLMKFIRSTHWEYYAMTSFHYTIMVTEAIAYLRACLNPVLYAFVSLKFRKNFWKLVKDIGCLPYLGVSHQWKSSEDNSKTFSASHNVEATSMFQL

[1] = follow-up concentration-response assays

T1 sequence (Q9H1C0 whole entry): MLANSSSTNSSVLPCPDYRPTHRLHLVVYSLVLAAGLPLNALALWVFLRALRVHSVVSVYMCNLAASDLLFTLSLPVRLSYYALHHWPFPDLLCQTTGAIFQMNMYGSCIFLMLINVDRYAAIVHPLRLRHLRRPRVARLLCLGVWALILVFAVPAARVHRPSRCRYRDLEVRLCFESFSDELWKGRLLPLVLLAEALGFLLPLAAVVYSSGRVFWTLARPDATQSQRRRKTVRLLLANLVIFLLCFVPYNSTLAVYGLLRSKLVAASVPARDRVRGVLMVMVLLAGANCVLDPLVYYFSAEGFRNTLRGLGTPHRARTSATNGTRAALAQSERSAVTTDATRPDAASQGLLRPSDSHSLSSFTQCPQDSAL
T2 sequence (Q9UBY5 whole entry): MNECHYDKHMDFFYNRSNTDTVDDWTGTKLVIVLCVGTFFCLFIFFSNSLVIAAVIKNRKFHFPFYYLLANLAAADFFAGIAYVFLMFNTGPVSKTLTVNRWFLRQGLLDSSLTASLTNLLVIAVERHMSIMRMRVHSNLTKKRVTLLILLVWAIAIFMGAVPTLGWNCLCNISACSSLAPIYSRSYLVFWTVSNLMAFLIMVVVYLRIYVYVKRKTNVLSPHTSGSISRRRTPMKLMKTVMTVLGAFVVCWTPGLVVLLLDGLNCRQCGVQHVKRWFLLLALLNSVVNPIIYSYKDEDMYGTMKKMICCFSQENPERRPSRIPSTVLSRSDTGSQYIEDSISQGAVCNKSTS

**Q.** How did the EC80 (GPR92) turn out when `CCCCCCCC/C=C\CCCCCCCC(=O)OC[C@@H](O)COP(=O)(O)O` [Oleoyl LPA] was run?
**A.** 4280 nM

**Q.** And the EC80 (EDG7)?
**A.** 3480 nM

**Q.** And the EC80 (EDG4)?
**A.** 1960 nM

**Q.** `CNC[C@H](O)c1cccc(O)c1` [Phenylephrine] was tested. Which EC80 (ADRA1B) did it give?
**A.** 133 nM

**Q.** For WKYMVm-NH2, which EC80 (FPRL1) is on record?
**A.** 3.91 nM

**Q.** And the EC80 (FPR1; [1])?
**A.** 8.52 nM

**Q.** What about the EC80 (FPR1; screen, CHO, 37C, 2HR) of the same molecule?
**A.** 8.52 nM

**Q.** `NCCc1ccc(O)c(O)c1` [Dopamine] was tested. Which EC80 (DRD2S) did it give?
**A.** 300 nM

**Q.** And the EC80 (DRD2L; [1])?
**A.** 200 nM

**Q.** What about the EC80 (DRD2L; screen, CHO, 37C, 2HR) of the same molecule?
**A.** 100 nM

**Q.** How did the EC80 (GPR103) turn out when QRFP-26 was run?
**A.** 14.2 nM

**Q.** `CCCCCC(O)CC(=O)O` (stereo not drawn) [3-Hydroxyoctanoic Acid] was tested. Which EC80 (GPR109B) did it give?
**A.** 904000 nM

**Q.** Which results are given for `O=C(O)CCc1ccc(NCc2cccc(Oc3ccccc3)c2)cc1` [GW9508]?
**A.** EC80 (FFAR1): 402 nM; EC80 (GPR120): 21500 nM

**Q.** With `C[C@H](CCCC(C)(C)O)[C@H]1CC[C@H]2[C@@H]3[C@H](O)C=C4C[C@@H](O)CC[C@]4(C)[C@H]3CC[C@]12C` [7a,25-Dihydroxycholesterol] as the molecule, how does the EC80 (EBI2) read?
**A.** 23.3 nM

**Q.** Which EC80 (GPR1) does the source give for Chemerin: control agonist here?
**A.** 4.61 nM

**Q.** Which results are given for `CCCCCCCCCCCCC/C=C/[C@@H](O)[C@@H](N)COP(=O)(O)O` [S-1-P]?
**A.** EC80 (EDG6): 180 nM; EC80 (EDG3): 194 nM; EC80 (EDG1): 117 nM; EC80 (EDG5): 119 nM

B1: CXCL16: control agonist (protein, UniProt Q9H2A7 30-254, looked up)
C-X-C motif chemokine 16: NEGSVTGSCYCGKRISSDSPPSVQFMNRLRKHLRAYHRCLYYTRFQLLSWSVCGGNKDPWVQELMSCLDLKECGHAYSGIVAHQKHLLPTSPPISQASEGASSDIHTPAQMLLSTLQSTQRPTLPVGSLSSDKELTRPNETTIHTAGHSLAAGPEAGENQKQPEKNAGPTARTSATVPVLCLLAIIFILTAALSYVLCKRRRGQSPQSSPDLPVHYIPVAPDSNT
**Q.** B1 was tested. Which EC80 (CXCR6) did it give?
**A.** 1.39 nM
